Experimental data published in PubChem BioAssay AID2060512 (Molecular Pharmacology Branch, DTP, NCI, 2025).
Where “and” joins values, the source holds several entries; their conditions need not be identical. Equal entries are not always repeated.

Tested on: 186277-243-T-J2-PDC complex spheroid viability
Assay: Anticancer human tumor 186277-243-T-J2-PDC patient-derived colon adenocarcinoma cell line growth inhibition [GQUAD]
Details: for viability, T/C: stronger effect = lower value
From the text: DNA G-quadruplex Stabilizer Agents in Combinations in Complex Spheroids
A high-throughput screen of multi-cell type tumor spheroids was designed to identify active combinations of DNA G-quadruplex stabilizer agents and targeted small molecules. Complex spheroids include a stromal component modeled by human endothelial cells (HUVEC) and fibroblasts modeled by human mesenchymal stem cells (MSCs). The concentration ranges selected for each drug and investigational agent were based upon clinically achievable concentrations if the clinical Cmax of the agent was known.
Compounds. The drugs and investigational agents: pidnarulex (CX-5461; NSC782164), APTO-253 (NSC789042), BRACO-19 (NSC847499), peposertib (NSC802822), ceralasertib (NSC780249), elimusertib (NSC800525), camonsertib (NSC841442), AZD-1390 (NSC803789), olaparib (NSC753686), talazoparib (NSC767125), ART-558 (NSC835418), sotorasib (NSC818433), MRTX-1133 (NSC836407), SN-38 (NSC673596), topotecan (NSC609699), etoposide (NSC141540), doxorubicin (NSC123127), gemcitabine (NSC613327), 5-fluorouracil (NSC19893), paclitaxel (NSC125973), vemurafenib (NSC761431), panobinostat (NSC761190), R-306465 (JNJ-16241199; NSC773264), adavosertib (NSC754352), TP-3654 (NSC805149), carboplatin (NSC241240), KSQ-4279 (NSC840948), and staurosporine (NSC755774) were obtained from the National Cancer Institute (NCI) Developmental Therapeutics Program Chemical Repository (34). The FDA-approved anticancer drug set is available from the NCI Developmental Therapeutics Program. […] The stock solutions were prepared in dimethyl sulfoxide (DMSO, Sigma-Aldrich, St. Louis, MO, cat. D2650) at 800-fold the tested concentration and stored at -70 degrees C prior to their use. All drugs and investigational agents were tested over a range starting from a high concentration at or near the clinical Cmax and decreasing in half-log increments. If the clinical Cmax for an agent had not been determined, the highest concentration tested was 10 microM.
2.3 Cell Culture. All cells were maintained in an incubator at 37 degrees C and 5% CO2 with 95% humidity. The PDC lines were cultured according to standard operating procedures established by the NCI PDMR. All PDCs were thawed and cultured in Matrigel-coated flasks prepared with a working solution of 1X Ham's F-12 nutrient mix, without supplementation (Invitrogen, cat. 11765054), 100 U/mL penicillin-streptomycin (Invitrogen, cat. 15140122), and 2.5% Matrigel (Corning Inc., cat. 354248) for the first three passages. The 857933-349-R-J2-PDC line was cultured in 6C/Colon 1B media, which includes advanced DMEM/F-12 (Thermo Fisher Scientific, cat. 12634028), 10 mM HEPES (Thermo Fisher Scientific, cat. 15630080), 1X GlutaMAX supplement (Thermo Fisher Scientific, cat. 35050061), 0.1 mg/mL primocin (InvivoGen, cat. ant-pm-2), 10% defined fetal bovine serum, heat inactivated (HyClone Laboratories Inc., cat. SH30070.03HI), 50% L-WRN conditioned media (ATCC, cat. CRL-3276), 1.25 mM N-Acetyl-L-cysteine (Sigma-Aldrich, cat. A9165), 10 mM nicotinamide (Sigma-Aldrich, cat. N0636), 1X B-27 supplement (Thermo Fisher Scientific, cat. 17504044), 1X N-2 supplement (Thermo Fisher Scientific, cat. 17502048), 10 microM Y-27632 dihydrochloride (Tocris Bioscience, cat. 1254), and 50 ng/mL human EGF recombinant protein (Thermo Fisher Scientific, cat. PHG0311). The 485176-168-R4-J1-PDC line was cultured in Panc media, which includes all 6C/Colon 1B media components plus 100 ng/mL human FGF-10 (Thermo Fisher Scientific, cat. 100-26), 500 nM SB-431542 (Selleckchem, cat. S1067), and gastrin (Tocris, cat. 3006).
[…]
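Further: spheroids exposed to drugs for 7 days.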
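Wherever viability, T/C is given: 100% = DMSO vehicle control viability.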

`C=CC(=O)N1CCN(c2nc(=O)n(-c3c(C)ccnc3C(C)C)c3nc(-c4c(O)cccc4F)c(F)cc23)C(C)C1` (configuration not stated) was tested, and the viability, T/C (compound 0.0316 µM) was 91.3% and 93.7% and 101%, the viability, T/C (compound 0.1 µM) was 82.3% and 102% and 89.8% and the viability, T/C (compound 0.316 µM) was 94% and 91.1% and 104%. For the same compound, the viability, T/C (compound 1 µM) was 108% and 96.1% and 91.2%, the viability, T/C (compound 3.16 µM) was 92.6% and 117% and 98% and the viability, T/C (compound 10 µM) was 87.6% and 78.8% and 95.7%. The IC50 (curve of compound) was over 10000 nM.
For `COc1cccc2c1C(=O)c1c(O)c3c(c(O)c1C2=O)CC(O)(C(=O)CO)CC3OC1CC(N)C(O)C(C)O1` (configuration not stated), the viability, T/C (compound 0.0316 µM) was 108% and 97.9% and 88.6%, the viability, T/C (compound 0.1 µM) was 117% and 91.2% and 90.2% and the viability, T/C (compound 0.316 µM) was 83.2% and 57.1% and 66.7%. The viability, T/C (compound 1 µM) was 29.7% and 15.8% and 22.8%, the viability, T/C (compound 3.16 µM) was 4.47% and 0.22% and 0.3% and the viability, T/C (compound 10 µM) was 0.23% and 0.19% and 0.13%. The IC50 (curve of compound) was 649 nM and 388 nM and 494 nM.
In the case of `Cc1[nH]c2ccccc2c1CCNCc1ccc(/C=C/C(=O)NO)cc1`, the viability, T/C (compound 0.000999 µM) is reported as 107% and 92.7% and 99%, the viability, T/C (compound 0.00316 µM) is reported as 89.4% and 96.9% and 90% and the viability, T/C (compound 0.00999 µM) is reported as 92.2% and 94.9% and 101%. For the same compound, the viability, T/C (compound 0.0316 µM) was 60% and 92.1% and 97.2%, the viability, T/C (compound 0.0999 µM) was 18.4% and 8.39% and 19.1% and the viability, T/C (compound 0.316 µM) was 0.49% and 2.16% and 2.64%. The IC50 (curve of compound) was 41.9 nM and 56.4 nM and 63.2 nM.
With `C#Cc1c(F)ccc2cc(O)cc(-c3ncc4c(N5CC6CCC(C5)N6)nc(OCC56CCCN5CC(F)C6)nc4c3F)c12` (configuration not stated) the viability, T/C (compound 0.0316 µM) was 99.9% and 94.8% and 64%, the viability, T/C (compound 0.1 µM) was 59.1% and 30.1% and 46.2% and the viability, T/C (compound 0.316 µM) was 26% and 13.2% and 19.2%. For the same compound, the viability, T/C (compound 1 µM) was 14.4% and 7.76% and 10.2%, the viability, T/C (compound 3.16 µM) was 17.8% and 7.17% and 7.07% and the viability, T/C (compound 10 µM) was 10.2% and 5.44% and 5.48%. The IC50 (curve of compound) was 137 nM and 70.6 nM and 77.1 nM.
`CC1COCCN1c1cc(C2(S(C)(=N)=O)CC2)nc(-c2ccnc3[nH]ccc23)n1` (configuration not stated) was tested, and the viability, T/C (compound 0.0316 µM) was 98.7% and 91.8% and 97.2%, the viability, T/C (compound 0.1 µM) was 84.2% and 100% and 98.6% and the viability, T/C (compound 0.316 µM) was 102% and 104% and 95.6%. The viability, T/C (compound 1 µM) was 52.7% and 36.2% and 49%, the viability, T/C (compound 3.16 µM) was 18.2% and 7.52% and 14.2% and the viability, T/C (compound 10 µM) was 6.83% and 5.23% and 6.65%. The IC50 (curve of compound) was 1080 nM and 775 nM and 990 nM.
Work on `C#Cc1c(F)ccc2cc(O)cc(-c3ncc4c(N5CC6CCC(C5)N6)nc(OCC56CCCN5CC(F)C6)nc4c3F)c12` (configuration not stated) + CN(C)c1ccc(Nc2c3ccc(NC(=O)CCN4CCCC4)cc3nc3cc(NC(=O)CCN4CCCC4)ccc23)cc1 yielded an IC50 (curve of first compound, second compound 0.0316 µM) of 89.9 nM, an IC50 (curve of first compound, second compound 0.1 µM) of 83.6 nM and an IC50 (curve of first compound, second compound 0.316 µM) of 99.7 nM. It also gave an IC50 (curve of first compound, second compound 1 µM) of 84.2 nM, an IC50 (curve of first compound, second compound 3.16 µM) of 135 nM and an IC50 (curve of first compound, second compound 10 µM) of 77 nM. It also gave a viability, T/C (second compound 0.0316 µM, first compound 0.0316 µM) of 82%, a viability, T/C (second compound 0.0316 µM, first compound 0.1 µM) of 47.4% and a viability, T/C (second compound 0.0316 µM, first compound 0.316 µM) of 21.6%. For the same compound, the viability, T/C (second compound 0.0316 µM, first compound 1 µM) was 16.9%, the viability, T/C (second compound 0.0316 µM, first compound 3.16 µM) was 6.89% and the viability, T/C (second compound 0.0316 µM, first compound 10 µM) was 7.82%. For the same compound, the viability, T/C (second compound 0.1 µM, first compound 0.0316 µM) was 74.2%, the viability, T/C (second compound 0.1 µM, first compound 0.1 µM) was 45.7% and the viability, T/C (second compound 0.1 µM, first compound 0.316 µM) was 18.7%. For the same compound, the viability, T/C (second compound 0.1 µM, first compound 1 µM) was 11.1%, the viability, T/C (second compound 0.1 µM, first compound 3.16 µM) was 6.45% and the viability, T/C (second compound 0.1 µM, first compound 10 µM) was 7.02%. It also gave a viability, T/C (second compound 0.316 µM, first compound 0.0316 µM) of 77%, a viability, T/C (second compound 0.316 µM, first compound 0.1 µM) of 50.4% and a viability, T/C (second compound 0.316 µM, first compound 0.316 µM) of 19.8%. For the same compound, the viability, T/C (second compound 0.316 µM, first compound 1 µM) was 14.4%, the viability, T/C (second compound 0.316 µM, first compound 3.16 µM) was 8.31% and the viability, T/C (second compound 0.316 µM, first compound 10 µM) was 7.51%. The viability, T/C (second compound 1 µM, first compound 0.0316 µM) was 74.6%, the viability, T/C (second compound 1 µM, first compound 0.1 µM) was 46.6% and the viability, T/C (second compound 1 µM, first compound 0.316 µM) was 21.3%. It also gave a viability, T/C (second compound 1 µM, first compound 1 µM) of 16.1%, a viability, T/C (second compound 1 µM, first compound 3.16 µM) of 14.3% and a viability, T/C (second compound 1 µM, first compound 10 µM) of 6.27%. It also gave a viability, T/C (second compound 3.16 µM, first compound 0.0316 µM) of 73.9%, a viability, T/C (second compound 3.16 µM, first compound 0.1 µM) of 59.6% and a viability, T/C (second compound 3.16 µM, first compound 0.316 µM) of 22.9%. For the same compound, the viability, T/C (second compound 3.16 µM, first compound 1 µM) was 8.92%, the viability, T/C (second compound 3.16 µM, first compound 3.16 µM) was 8.54% and the viability, T/C (second compound 3.16 µM, first compound 10 µM) was 5.1%. For the same compound, the viability, T/C (second compound 10 µM, first compound 0.0316 µM) was 74.3%, the viability, T/C (second compound 10 µM, first compound 0.1 µM) was 42.1% and the viability, T/C (second compound 10 µM, first compound 0.316 µM) was 24.2%. For the same compound, the viability, T/C (second compound 10 µM, first compound 1 µM) was 12.5%, the viability, T/C (second compound 10 µM, first compound 3.16 µM) was 6.96% and the viability, T/C (second compound 10 µM, first compound 10 µM) was 1.49%.
